Measurements reported in US8192986B2, “Compositions and methods for treatment of protein misfolding diseases” (Whitehead Institute for Biomedical Research, priority 2004, dated 2012).

Tested on: yeast cells expressing low levels of huntingtin
Assay: Huntingtin toxicity in yeast grown in the presence of an ER stress inducer (FIG. 6B)
Type: cell-based
Conditions: yeast cells grown in the presence of tunicamycin, low levels of huntingtin expressed
From the text: The unfolded protein response in yeast is depicted in FIG. 6A. […] Conversely, expression of constitutively active IRE1 or HAC (proteins that induce the UPR) ameliorated the toxic effects of high level expression of 103 Q huntingtin in yeast (FIGS. 6D and 6E).

Question: For tunicamycin, which “huntingtin toxicity in yeast cells” value is on record?
Answer: enhanced toxicity
